{"source": "ChEMBL document CHEMBL1201862", "about": "“PubChem BioAssay data set” (2004)", "experiment_in_all_cases": "NCI-60 cell line screen, 48 h", "key": {"786-0": {"tested_on": "786-0"}, "A498": {"tested_on": "A498"}, "A549": {"tested_on": "A549"}, "ACHN": {"tested_on": "ACHN"}, "CAKI-1": {"tested_on": "CAKI-1"}, "CCRF-CEM": {"tested_on": "CCRF-CEM"}, "COLO 205": {"tested_on": "COLO 205"}, "DU-145": {"tested_on": "DU-145"}, "EKVX": {"tested_on": "EKVX"}, "HCC 2998": {"tested_on": "HCC 2998"}, "HCT-116": {"tested_on": "HCT-116"}, "HCT-15": {"tested_on": "HCT-15"}, "HL-60": {"tested_on": "HL-60"}, "HOP-62": {"tested_on": "HOP-62"}, "HOP-92": {"tested_on": "HOP-92"}, "HT-29": {"tested_on": "HT-29"}, "Hs-578T": {"tested_on": "Hs-578T"}, "IGROV-1": {"tested_on": "IGROV-1"}, "K562": {"tested_on": "K562"}, "KM12": {"tested_on": "KM12"}, "LOX IMVI": {"tested_on": "LOX IMVI"}, "M14": {"tested_on": "M14"}, "MCF7": {"tested_on": "MCF7"}, "MDA-MB-231": {"tested_on": "MDA-MB-231"}, "MDA-MB-435": {"tested_on": "MDA-MB-435"}, "MDA-N": {"tested_on": "MDA-N"}, "MOLT-4": {"tested_on": "MOLT-4"}, "Malme-3M": {"tested_on": "Malme-3M"}, "NCI-H226": {"tested_on": "NCI-H226"}, "NCI-H23": {"tested_on": "NCI-H23"}, "NCI-H460": {"tested_on": "NCI-H460"}, "NCI-H522": {"tested_on": "NCI-H522"}, "NCI/ADR-RES": {"tested_on": "NCI/ADR-RES"}, "OVCAR-3": {"tested_on": "OVCAR-3"}, "OVCAR-4": {"tested_on": "OVCAR-4"}, "OVCAR-5": {"tested_on": "OVCAR-5"}, "OVCAR-8": {"tested_on": "OVCAR-8"}, "PC-3": {"tested_on": "PC-3"}, "RPMI-8226": {"tested_on": "RPMI-8226"}, "RXF 393": {"tested_on": "RXF 393"}, "SF-268": {"tested_on": "SF-268"}, "SF-295": {"tested_on": "SF-295"}, "SF-539": {"tested_on": "SF-539"}, "SK-MEL-28": {"tested_on": "SK-MEL-28"}, "SK-MEL-2": {"tested_on": "SK-MEL-2"}, "SK-MEL-5": {"tested_on": "SK-MEL-5"}, "SK-OV-3": {"tested_on": "SK-OV-3"}, "SN12C": {"tested_on": "SN12C"}, "SNB-19": {"tested_on": "SNB-19"}, "SR": {"tested_on": "SR"}, "SW-620": {"tested_on": "SW-620"}, "TK-10": {"tested_on": "TK-10"}, "U-251": {"tested_on": "U-251"}, "UACC-257": {"tested_on": "UACC-257"}, "UACC-62": {"tested_on": "UACC-62"}, "UO-31": {"tested_on": "UO-31"}}, "note": "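48-hour exposure; five concentrations; linearly interpolated endpoints. At the GI50, growth is halved.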 Activity calls are given as the source filed them. Cut-off read from the data, not from the text of the source: active = GI50 up to about 1.1 µM and inactive = higher.", "data": [{"compound": "O=c1[nH]n(Cc2ccccc2)c2ccc([N+](=O)[O-])cc12", "values": [{"measurement": "GI50", "setting": "786-0", "result": "82.4 µM (inactive)"}, {"measurement": "GI50", "setting": "A498", "result": "47.3 µM (inactive)"}, {"measurement": "GI50", "setting": "A549", "result": "61 µM (inactive)"}, {"measurement": "GI50", "setting": "ACHN", "result": "> 100 µM (inactive)"}, {"measurement": "GI50", "setting": "CAKI-1", "result": "59.2 µM (inactive)"}, {"measurement": "GI50", "setting": "CCRF-CEM", "result": "55.2 µM (inactive)"}, {"measurement": "GI50", "setting": "COLO 205", "result": "> 100 µM (inactive)"}, {"measurement": "GI50", "setting": "DU-145", "result": "> 100 µM (inactive)"}, {"measurement": "GI50", "setting": "EKVX", "result": "> 100 µM (inactive)"}, {"measurement": "GI50", "setting": "HCC 2998", "result": "36.3 µM (inactive)"}, {"measurement": "GI50", "setting": "HCT-116", "result": "49.4 µM (inactive)"}, {"measurement": "GI50", "setting": "HCT-15", "result": 56.1, "unit": "µM"}, {"measurement": "GI50", "setting": "HL-60", "result": "33.8 µM (inactive)"}, {"measurement": "GI50", "setting": "HOP-62", "result": "> 100 µM (inactive)"}, {"measurement": "GI50", "setting": "HOP-92", "result": "55.8 µM (inactive)"}, {"measurement": "GI50", "setting": "HT-29", "result": "41.2 µM (inactive)"}, {"measurement": "GI50", "setting": "Hs-578T", "result": "35.2 µM (inactive)"}, {"measurement": "GI50", "setting": "IGROV-1", "result": "84.3 µM (inactive)"}, {"measurement": "GI50", "setting": "K562", "result": "28.8 µM (inactive)"}, {"measurement": "GI50", "setting": "KM12", "result": "64.4 µM (inactive)"}, {"measurement": "GI50", "setting": "LOX IMVI", "result": "88.7 µM (inactive)"}, {"measurement": "GI50", "setting": "M14", "result": "46.2 µM (inactive)"}, {"measurement": "GI50", "setting": "MCF7", "result": "28.2 µM (inactive)"}, {"measurement": "GI50", "setting": "MDA-MB-231", "result": "28.7 µM (inactive)"}, {"measurement": "GI50", "setting": "MDA-MB-435", "result": "19.9 µM (inactive)"}, {"measurement": "GI50", "setting": "MDA-N", "result": "29.2 µM (inactive)"}, {"measurement": "GI50", "setting": "MOLT-4", "result": "34.7 µM (inactive)"}, {"measurement": "GI50", "setting": "Malme-3M", "result": "44.5 µM (inactive)"}, {"measurement": "GI50", "setting": "NCI-H226", "result": "> 100 µM (inactive)"}, {"measurement": "GI50", "setting": "NCI-H23", "result": "56.5 µM (inactive)"}, {"measurement": "GI50", "setting": "NCI-H460", "result": "40.6 µM (inactive)"}, {"measurement": "GI50", "setting": "NCI-H522", "result": "65.5 µM (inactive)"}, {"measurement": "GI50", "setting": "NCI/ADR-RES", "result": "34.8 µM (inactive)"}, {"measurement": "GI50", "setting": "OVCAR-3", "result": "> 100 µM (inactive)"}, {"measurement": "GI50", "setting": "OVCAR-4", "result": "> 100 µM (inactive)"}, {"measurement": "GI50", "setting": "OVCAR-5", "result": "> 100 µM (inactive)"}, {"measurement": "GI50", "setting": "OVCAR-8", "result": "> 100 µM (inactive)"}, {"measurement": "GI50", "setting": "PC-3", "result": "37.2 µM (inactive)"}, {"measurement": "GI50", "setting": "RPMI-8226", "result": "48.5 µM (inactive)"}, {"measurement": "GI50", "setting": "RXF 393", "result": "71.9 µM (inactive)"}, {"measurement": "GI50", "setting": "SF-268", "result": "> 100 µM (inactive)"}, {"measurement": "GI50", "setting": "SF-295", "result": "66.8 µM (inactive)"}, {"measurement": "GI50", "setting": "SF-539", "result": "87.1 µM (inactive)"}, {"measurement": "GI50", "setting": "SK-MEL-28", "result": "57.9 µM (inactive)"}, {"measurement": "GI50", "setting": "SK-MEL-2", "result": "47.8 µM (inactive)"}, {"measurement": "GI50", "setting": "SK-MEL-5", "result": "46.9 µM (inactive)"}, {"measurement": "GI50", "setting": "SK-OV-3", "result": "15.7 µM (inactive)"}, {"measurement": "GI50", "setting": "SN12C", "result": "49.5 µM (inactive)"}, {"measurement": "GI50", "setting": "SNB-19", "result": "> 100 µM (inactive)"}, {"measurement": "GI50", "setting": "SR", "result": "69.7 µM (inactive)"}, {"measurement": "GI50", "setting": "SW-620", "result": "48.9 µM (inactive)"}, {"measurement": "GI50", "setting": "TK-10", "result": "> 100 µM (inactive)"}, {"measurement": "GI50", "setting": "U-251", "result": "49.8 µM (inactive)"}, {"measurement": "GI50", "setting": "UACC-257", "result": "60.8 µM (inactive)"}, {"measurement": "GI50", "setting": "UACC-62", "result": "> 100 µM (inactive)"}, {"measurement": "GI50", "setting": "UO-31", "result": "45.5 µM (inactive)"}]}]}
